Series [1] deals with healthy premenopausal women. The conditions noted are these: 5, 10, 15 and 20 mg, single and multiple dose; 26 healthy premenopausal women; cited from earlier work.
For series [2] the following is noted: marketed in the US for long-term chronic breast cancer therapy (five years and beyond); cited from earlier work.
Series [3] relates to Women with menorrhagia. Put plainly: Daily menstrual bleeding severity score in women receiving anastrozole for 26 days vs placebo. Type of series: in vivo. An excerpt:
(§1) Women with menorrhagia were enrolled in the study and divided into two groups—one as Treatment Group and the other as Control Group. Administering of anastrozole to the women in the Treatment Group started on the second day of the menstrual cycle and lasted for 26 days. In some cases, the administration started on the third day due to site scheduling limitations. Conversely, the women in the Control Group received placebo during the same period. Data on the mean menstrual bleeding severity score were recorded on a daily basis according to the following categories of vaginal bleeding: 0=none; 1=spotting; 2=mild bleeding; 3=moderate bleeding; and 4=heavy bleeding.
In the Control Group, within 6 days, the average score was down to about zero. Over the next 20 days, the fluctuations in menstrual bleeding severity would also be considered typical in that some women experience “breakthrough bleeding” which was reflected in the deviation from zero that would be expected in models of normal cycles, but was not reflected in reality. This was particularly notable during the second half of the menstrual cycle.
The observation above was contrasted by women who received anastrozole for 26 consecutive days (Treatment Group). […]

Series [4] deals with Women with menorrhagia. Kind of series: Safety profile of anastrozole compared to placebo in the same study. Particulars: 26 days of anastrozole. It counts as in vivo.
Description: as §1
The observation above was contrasted by women who received anastrozole for 26 consecutive days (Treatment Group). On Study Day 1, which corresponds to Cycle Day 2 as with the Control Group, the women were administered 20 mg of anastrozole in the clinic office and then […] for the remaining 25 days.

Results on 3 compounds are retold here after patent publication US20100292150A1, “Treatment of Menorrhagia with Aromatase Inhibitor” (MEDITRINA PHARMACEUTICALS, INC., priority 2007, published 2010).

Consider `CC(C)(C#N)c1cc(Cn2cncn2)cc(C(C)(C)C#N)c1` [anastrozole], for which the adverse events entry in series [1] is given as “no severe, serious, or otherwise significant adverse events”. Moreover, the general safety result in series [2] is on record as “generally accepted as safe drugs”. In addition, the “reported bleeding over the remaining days of treatment” value in the series with Women with menorrhagia [3] (20 mg on Study Day 1, then 10 mg/day for remaining 25 days, contrasted with placebo) is reported as “no bleeding or spotting reported until the very end of the cycle”. Further, the “mean bleeding severity at the start of the treatment interval” value with Women with menorrhagia [3] (score 0=none to 4=heavy bleeding, Study Day 1 = Cycle Day 2, 20 mg anastrozole on day 1) was about 3. The safety liabilities entry with Women with menorrhagia [4] is reported as “does not appear to have any significant safety liabilities”.
As for `C=C1C[C@@H]2[C@H](CC[C@]3(C)C(=O)CC[C@@H]23)[C@@]2(C)C=CC(=O)C=C12` [exemestane], the general safety result in series [2] is on record as “generally accepted as safe drugs”.
In the case of `N#Cc1ccc(C(c2ccc(C#N)cc2)n2cncn2)cc1` [letrozole], in series [2], the general safety entry is recorded as “generally accepted as safe drugs”.
